From ChEMBL document CHEMBL1153542, “RNase H active site inhibitors of human immunodeficiency virus type 1 reverse transcriptase: design, biochemical activity, and structural information” (J Med Chem, 2009)
The source made the active and inactive calls. The rule behind the calls is not given here.

Legend:
[1] = test system: Human immunodeficiency virus; assay: Antiviral activity against HIV infected in human MT4 cells up to 100 uM by multicycle infectivity assay; format: functional, organism-based
Ribonuclease H1 = molecular target: T1, Ribonuclease H1 (Homo sapiens, UniProt O60930); assay: Inhibition of human RNase H assessed as substrate cleavage by fluorescence assay
T1 sequence (O60930 whole entry): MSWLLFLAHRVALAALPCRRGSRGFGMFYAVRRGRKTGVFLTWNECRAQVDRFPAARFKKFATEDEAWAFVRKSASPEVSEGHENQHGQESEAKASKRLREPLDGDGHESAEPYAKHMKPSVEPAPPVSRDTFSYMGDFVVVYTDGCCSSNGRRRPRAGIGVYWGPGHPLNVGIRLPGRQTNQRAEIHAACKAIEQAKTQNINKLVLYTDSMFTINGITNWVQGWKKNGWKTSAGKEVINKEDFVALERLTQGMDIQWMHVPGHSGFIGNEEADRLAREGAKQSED

[2] = molecular target: Ribonuclease H1 (Homo sapiens) (UniProt O60930); assay: Inhibition of human recombinant ribonuclease H1 in presence of Mg2+

Structure (SMILES) | Activity [1] | IC50 (Ribonuclease H1) [µM] | IC50 [2] [µM]
O=C(O)c1nc(Cc2ccc(Cl)c(Cl)c2)nc(O)c1O | inactive |  | 
COC(=O)c1nc(Cc2ccccc2)nc(O)c1O | inactive |  | 
O=c1[nH]c2ccccc2c(=O)n1O | inactive | 5.9 | 
O=C(O)c1nc(Cc2c(Br)sc3ccc(Cl)cc23)nc(O)c1O | inactive |  | 
O=C(O)c1nc(-c2ccccc2)nc(O)c1O | inactive |  | > 100
O=C(O)c1nc(Cc2ccccc2)nc(O)c1O | inactive |  | 
COc1ccc(Cc2nc(O)c(O)c(C(=O)O)n2)cc1Br | inactive |  | 
O=C(O)c1nc(CCc2ccccc2)nc(O)c1O | inactive |  | 
